Source: publication PMC8116641 (Archives of Virology, 2021)

Test system: influenza A virus A/Aichi/2/68 (H3N2) (Aichi (H3N2))
Assay: microbe, parasite or virus in culture
Assay type: cell-based
Settings: Influenza A virus, H3N2, MDCK, read-out: IC50 (50% inhibitory concentration)

CC1(C)[C@H]2CC[C@]1(C)[C@H](OC(=O)C[N+](C)(C)C)C2.[I-] [10a, N,N,N-Trimethyl-2-oxo-2-((1S,2R,4S)-1,7,7-trimethylbicyclo[2.2.1]heptan-2-yloxy)ethanaminium iodide]
IC50: 16.8 µM
